Holding throughout (assay): Matrigel transwell invasion test
Format in all cases: cell-based, human
Holding throughout (conditions): 24 h

Test [1] concerns A431 cells of skin cancer. The method, then: (§1) Dilute 10 mg/mL Matrigel with culture medium at 1:3, spread it on membranes of transwell cells and dry it in the air at room temperature. Use trypsin to digest and collect SCC4 cells of head and neck cancer, SW579 cells of thyroid cancer, A549 cells of lung cancer, TE13 cells of esophageal squamous cell carcinoma, MGC803 cells of stomach cancer, MDA-MB-231 cells of breast cancer, UOK262 cells of kidney cancer, and A431 cells of skin cancer of human, which were cultured to the logarithmic phase, wash with PBS twice and re-suspend with a blank culture medium. Adjust cell concentration to 1×10^5 cells/mL. Inoculate the cells to transwell cells, 100 μL per well, and meanwhile add micropeptides HMMW I to IX at different doses to every cell. Add 0.6 mL of complete medium containing 10% FBS to the transwell cells to stimulate cell invasion, and culture in 5% CO2 at 37 DEG C. for 24 h. Discard the medium in the wells, fix with 90% alcohol at room temperature for 30 min, stain with 0.1% crystal violet at room temperature for 10 min, rinse with clear water, gently wipe off the non-invaded cells in the upper layer with a cotton swab, observe under a microscope and select four fields of view to take pictures and count. Calculate the invasion inhibition rate (IIR) of the cells according to the following formula:
(§2) [formula] where Ntest is the number of invaded cells in the test groups (the groups at a dose of 1, 4 or 16 μM in the table), Ncontrol is the number of invaded cells in the blank control groups (the groups at a dose of 0 μM in the table). The test was repeated independently three times. Mean±SD was calculated based on the test results. Statistical t test was done. Value P was used to express statistical difference. The statistical significance of the results is a method for estimating how true the results are (the totality can be represented), *P<0.05 means significant difference, and **P<0.01 means very significant difference.

Test [2] has as its system A549 cells of lung cancer. The method, then: as §1, §2
Test [3] deals with MDA-MB-231 cells of breast cancer. On the procedure:
as §1, §2

Test [4] has as its system MGC803 cells of stomach cancer. On the procedure:
as §1, §2

In test [5] the test system is SCC4 cells of head and neck cancer. The method, then:
as §1, §2

Test [6] has as its system SW579 cells of thyroid cancer. The method, then:
as §1, §2

Test [7] deals with TE13 cells of esophageal squamous cell carcinoma. On the procedure:
as §1, §2

For test [8], the system named is UOK262 cells of kidney cancer. On the procedure:
as §1, §2

No end group written: not given here.

Take “MGRAGVPGFSPRRSSVEAKMQSTSCSVRKSSTVTAWPAVVLLLSWGQRRGG-OH [HMMW-IX]”: the invasion inhibition rate in test [1] (dose 1 μM) came out at 34.83%; in test [1] (dose 4 μM) it was 54.35%; in test [1] (dose 16 μM) it was 74.16%; in test [2] (dose 1 μM) it was 30.15%; in test [2] (dose 4 μM), 60.32%; in test [2] (dose 16 μM), 70.35%. The invasion inhibition rate in test [3] (dose 1 μM) is on record as 27.83%; in test [3] (dose 4 μM), 49.57%; in test [3] (dose 16 μM) it was 75.43%; in test [4] (dose 1 μM) it was 26.42%; in test [4] (dose 4 μM) it was 57.19%; in test [4] (dose 16 μM), 68.35%. The invasion inhibition rate in test [5] (dose 1 μM) was found to be 24.83%; in test [5] (dose 4 μM), 48.82%; in test [5] (dose 16 μM) it was 75.16%; in test [6] (dose 1 μM) it was 25.21%; in test [6] (dose 4 μM), 48.60%; in test [6] (dose 16 μM), 62.48%. Further, the invasion inhibition rate in test [7] (dose 1 μM) is recorded as 21.25%; in test [7] (dose 4 μM), 40.39%; in test [7] (dose 16 μM) it was 65.47%; in test [8] (dose 1 μM) it was 39.15%; in test [8] (dose 4 μM), 59.28%; in test [8] (dose 16 μM), 69.51%.
Turning to “MGSTGVPGFSPRRSSVEAKMQSTSCSVRKSSTVTAWPAVVLLLSWGQRRGG-OH [HMMW-VII]”, the invasion inhibition rate in test [1] (dose 1 μM) was found to be 34.70%; in test [1] (dose 4 μM), 55.51%; in test [1] (dose 16 μM), 69.24%; in test [2] (dose 1 μM), 32.22%; in test [2] (dose 4 μM) it was 52.42%; in test [2] (dose 16 μM), 64.02%. Further, the invasion inhibition rate in test [3] (dose 1 μM) was found to be 27.91%; in test [3] (dose 4 μM) it was 49.55%; in test [3] (dose 16 μM) it was 74.32%; in test [4] (dose 1 μM), 29.50%; in test [4] (dose 4 μM) it was 54.34%; in test [4] (dose 16 μM), 69.57%. Further, the invasion inhibition rate in test [5] (dose 1 μM) was found to be 19.70%; in test [5] (dose 4 μM) it was 43.11%; in test [5] (dose 16 μM), 70.84%; in test [6] (dose 1 μM), 20.11%; in test [6] (dose 4 μM), 43.72%; in test [6] (dose 16 μM), 63.71%. The invasion inhibition rate was found to be 25.11% in test [7] (dose 1 μM); 45.36% in test [7] (dose 4 μM); 67.52% in test [7] (dose 16 μM); 36.74% in test [8] (dose 1 μM); 56.26% in test [8] (dose 4 μM); 67.62% in test [8] (dose 16 μM).
Consider “MGSTYNPGFSPRRSSVEAKMQSTSCSVRKSSTVTAWPAVVLLLSWGQRRGG-OH [HMMW-V]”, for which the invasion inhibition rate in test [1] (dose 1 μM) is reported as 32.19%; in test [1] (dose 4 μM), 51.35%; in test [1] (dose 16 μM), 69.29%; in test [2] (dose 1 μM) it was 31.19%; in test [2] (dose 4 μM), 51.27%; in test [2] (dose 16 μM) it was 64.25%. The invasion inhibition rate turned out to be 27.25% in test [3] (dose 1 μM); 48.37% in test [3] (dose 4 μM); 70.50% in test [3] (dose 16 μM); 26.53% in test [4] (dose 1 μM); 50.24% in test [4] (dose 4 μM); 68.38% in test [4] (dose 16 μM). In addition, the invasion inhibition rate came to 20.34% in test [5] (dose 1 μM); 46.26% in test [5] (dose 4 μM); 74.71% in test [5] (dose 16 μM); 19.09% in test [6] (dose 1 μM); 44.23% in test [6] (dose 4 μM); 64.14% in test [6] (dose 16 μM). Besides, the invasion inhibition rate in test [7] (dose 1 μM) is 20.29%; in test [7] (dose 4 μM), 42.74%; in test [7] (dose 16 μM), 66.69%; in test [8] (dose 1 μM), 33.43%; in test [8] (dose 4 μM), 53.27%; in test [8] (dose 16 μM), 66.14%.
For “MERAGVPGFSPRRSSVEAKMQSTSCSVRKSSTVTAWPAVVLLLHTSKDDEE-OH [HMMW-II]”, the invasion inhibition rate in test [1] (dose 1 μM) was determined as 31.71%; in test [1] (dose 4 μM), 53.41%; in test [1] (dose 16 μM) it was 68.25%; in test [2] (dose 1 μM), 33.25%; in test [2] (dose 4 μM) it was 55.12%; in test [2] (dose 16 μM) it was 65.09%. The invasion inhibition rate in test [3] (dose 1 μM) came out at 25.93%; in test [3] (dose 4 μM) it was 47.75%; in test [3] (dose 16 μM), 71.52%; in test [4] (dose 1 μM) it was 27.52%; in test [4] (dose 4 μM), 51.04%; in test [4] (dose 16 μM), 66.51%. In addition, the invasion inhibition rate was found to be 21.72% in test [5] (dose 1 μM); 45.14% in test [5] (dose 4 μM); 73.80% in test [5] (dose 16 μM); 22.13% in test [6] (dose 1 μM); 45.78% in test [6] (dose 4 μM); 66.73% in test [6] (dose 16 μM). The invasion inhibition rate was 21.41% in test [7] (dose 1 μM); 43.46% in test [7] (dose 4 μM); 64.56% in test [7] (dose 16 μM); 34.70% in test [8] (dose 1 μM); 54.16% in test [8] (dose 4 μM); 65.64% in test [8] (dose 16 μM).
“MERAGVPGFSPRRSSVEAKMQSTSCSVRKSSTVTAWPAVVLLLSWGQRRGG-OH [HMMW-I]”: the invasion inhibition rate in test [1] (dose 1 μM) came out at 32.74%; in test [1] (dose 4 μM), 51.22%; in test [1] (dose 16 μM), 69.37%; in test [2] (dose 1 μM), 31.23%; in test [2] (dose 4 μM) it was 51.32%; in test [2] (dose 16 μM) it was 64.08%. In addition, the invasion inhibition rate in test [3] (dose 1 μM) turned out to be 27.97%; in test [3] (dose 4 μM), 48.95%; in test [3] (dose 16 μM) it was 70.49%; in test [4] (dose 1 μM) it was 26.12%; in test [4] (dose 4 μM), 50.08%; in test [4] (dose 16 μM) it was 68.62%. The invasion inhibition rate in test [5] (dose 1 μM) was 20.75%; in test [5] (dose 4 μM), 46.24%; in test [5] (dose 16 μM), 74.84%; in test [6] (dose 1 μM), 19.63%; in test [6] (dose 4 μM), 44.76%; in test [6] (dose 16 μM), 64.89%. Besides, the invasion inhibition rate is given as 20.43% in test [7] (dose 1 μM); 42.86% in test [7] (dose 4 μM); 66.51% in test [7] (dose 16 μM); 33.80% in test [8] (dose 1 μM); 53.12% in test [8] (dose 4 μM); 66.67% in test [8] (dose 16 μM).

The values are drawn from patent US12565522B2, “Micropeptide HMMW and application thereof” (NANJING ANJI BIOTECHNOLOGY CO., LTD., priority 2019, dated 2026).
